Experimental data as given in patent US20080004266A1, “Method for treating proliferative disorders associated with protooncogene products” (priority 2006, published 2008).

Columns and labels:
B-raf = conditions: A375 (V600E) versus CHL cells (wild type B-raf); cited from earlier work
phosphorylated Bcr-Abl = test: Degradation of Bcr-Abl in KU812 cells (Western blot); format: cell-based; conditions: 18 hours
Description: KU812 chronic myeloid leukemia cells (ATCC) (2×10^6 cells), which harbor the Philadelphia chromosome that produces Bcr-Abl tyrosine kinase, were treated (0.1 μM and 1.0 μM) with either Compound 226, 17-AAG or 17-DMAG. After 18 hours, the cells were lysed with 1× lysis buffer, and a western blot was perform using anti-BCR-ABL antibody to detect phosphorylated Bcr-Abl.

Flt3 with Hsp90 = conditions: cited from earlier work
V600E mutant B-raf = test: Degradation of B-raf in A375 melanoma cells (Western blot); format: cell-based, human; conditions: 18 hours, at 0.5 mM and 0.1 mM (so in the source)
Description: […] After 18 hours, the cells were lysed with 1× lysis buffer and a western blot was perform, and B-raf was detected with anti-B-raf antibody.

NPM-ALK [1] = conditions: NPM-ALK expressing ALCL cells; cited from earlier work
NPM-ALK [2] = test: Degradation of NPM-ALK in Karpas-299 cells (Western blot); format: cell-based, human; conditions: 18 hours
Description: Anaplastic large-cell lymphoma cells, Karpas-299 cells (the German resource center for biological material) (2×10^6 cells), which harbor the fusion protein NPM-ALK, were treated (0.05 μM, 0.1 μM and 0.5 μM) with either Compound 226 or 17-AAG. After 18 hours and the cells were lysed with 1× lysis buffer and a western blot was perform using an anti-ALK antibody to detect and phosphorylated NPM-ALK and total NPM-ALK.

[3] = system: Kasumi-1 cells (c-Kit N822K); test: Cell survival in Kasumi-1 cells (Cell Counting Kit-8); format: cell-based, human; conditions: 72 hours
Description: Kasumi-1 cells (20,000 cells/well) were cultured in 96-well plates and maintained at 37° C. for several hours. […] 17AAG and DMAG are Hsp90 inhibitors that are currently in clinical trials and are used here as positive controls for Hsp90 inhibition. […] Cell survival was measured with Cell Counting Kit-8 (Dojindo Laboratories, Cat # CK04).

[4] = system: Karpas-299 cells (NPM-ALK); test: Cell survival in Karpas-299 cells (Cell Counting Kit-8); format: cell-based, human; conditions: 72 hours
Description: Growth of this tumor cell line is dependent upon the expression of the NPM-ALK fusion protein. Karpas-299 cells (20,000 cells/well) were cultured in 96-well plates and maintained at 37° C. for several hours. The cells were incubated at 37° C. for 72 hours with various concentrations of compound 226 of the invention, 17AAG, and 17DMAG. 17AAG and 17DMAG are Hsp90 inhibitors that are currently in clinical trials and are used here as positive controls for Hsp90 inhibition. Cell survival was measured with Cell Counting Kit-8 (Dojindo Laboratories, Cat # CK04).

[5] = system: NCI-H1975 cells (EGFR T790M and L858R); test: Cell survival in NCI-H1975 cells (Cell Counting Kit-8); format: cell-based, human; conditions: 72 hours
Description: Human lung cancer cell line NCI-H1975 which harbors both the T790M and the L858R mutations in EGFR was obtained from American Type Culture Collection. NCI-H1975 (10,000 cells/well) were cultured in 96-well plates and maintained at 37° C. for several hours. The cells were incubated at 37° C. for 72 hours with various concentrations of compound 226 of the invention, 17AAG or DMAG. 17AAG and DMAG are Hsp90 inhibitors that are currently in clinical trials and are used here as positive controls for Hsp90 inhibition. Cell survival was measured with Cell Counting Kit-8 (Dojindo Laboratories, Cat # CK04).

K562 cells (Bcr-Abl) = test: Cell survival in K562 cells (Cell Counting Kit-8); format: cell-based, human; conditions: 72 hours
Description: Growth of this tumor cell line is dependent upon the expression of the Bcr-Abl fusion protein (C. Gambacarti-Passerini et al., Blood Cells Mol. Dis. 23:380-394, 1997). K562 cells (20,000 cells/well) were cultured in 96-well plates and maintained at 37° C. for several hours. […] 17AAG, DMAG, and Radicical are Hsp90 inhibitors that are currently in clinical trials and are used here as positive controls for Hsp90 inhibition. […] Cell survival was measured with Cell Counting Kit-8 (Dojindo Laboratories, Cat # CK04).

[6] = system: leukemia cell that express either wild type FLT3 or FLT3-ITD mutations; conditions: cited from earlier work
A375 cells (B-raf V600E) = test: Cell survival in A375 melanoma cells (Cell Counting Kit-8); format: cell-based, human; conditions: 72 hours
Description: Human melanoma cell line, A375 (2×10^6 cells), which contains the V600E mutation in the B-raf protein that confers constitutive […] kinase activity, was obtained from American Type Culture Collection. A375 cells (20,000 cells/well) were cultured in 96-well plates and maintained at 37° C. for several hours. The cells were incubated at 37° C. for 72 hours with various concentrations of compound 226, 17AAG or 17DMAG. 17AAG and 17DMAG are Hsp90 inhibitors that are currently in clinical trials and are used here as positive controls for Hsp90 inhibition. Cell survival was measured with Cell Counting Kit-8 (Dojindo Laboratories, Cat # CK04).

MV 4-11 cells (FLT3-ITD) = test: Cell survival in MV-4-11 cells (Cell Counting Kit-8); format: cell-based, human; conditions: 72 hours
Description: Human acute myelogenous leukemia (AML) cell line, MV 4-11 (ATCC #CRL-9591), was obtained from the American Type Culture Collection (ATCC; Manassas, Va., USA). Growth of this tumor cell line is dependent upon the expression of an activated form of the FLT3 tyrosine kinase receptor carrying an internal tandem duplication (ITD) mutation, which is the most common molecular defect associated with AML (K. W. Yee et al., Blood 100:2941-2949, 2002). MV 4-11 cells (20,000 cells/well) were cultured in 96-well plates and maintained at 37° C. for several hours. The cells were incubated at 37° C. for 72 hours with various concentrations of compounds of the invention, 17AAG, or DMAG. 17AAG and DMAG are Hsp90 inhibitors that are currently in clinical trials and are used here as positive controls for Hsp90 inhibition. Cell survival was measured with Cell Counting Kit-8 (Dojindo Laboratories, Cat # CK04).

Kasumi-1 cells = conditions: mutation in c-kit; cited from earlier work

Structure (SMILES): C=CCNC1=C2C[C@@H](C)C[C@H](OC)[C@H](O)[C@@H](C)/C=C(\C)[C@H](OC(N)=O)[C@@H](OC)/C=C\C=C(/C)C(=O)NC(=CC1=O)C2=O [Compound 17AAG, 17-allylamino-17-desmethoxygeldanamycin]
- degradation of B-raf (B-raf): degraded more rapidly than in CHL cells
- degradation of phosphorylated Bcr-Abl (phosphorylated Bcr-Abl; 0.1 μM): did not degrade
- degradation of phosphorylated Bcr-Abl (phosphorylated Bcr-Abl; 1.0 μM): partially degraded
- association of Flt3 with Hsp90 (Flt3 with Hsp90): disrupt the association of Flt3 with Hsp90
- degradation of V600E mutant B-raf (V600E mutant B-raf): did not induce significant degradation
- cell cycle and apoptosis (NPM-ALK [1]): induce cell-cycle arrest and apoptosis
- degradation of NPM-ALK (NPM-ALK [1]): increased degradation of NPM-ALK
- degradation of phosphorylated and total NPM-ALK (NPM-ALK [2]; 0.05 μM and 0.1 μM): no effect
- degradation of phosphorylated and total NPM-ALK (NPM-ALK [2]; 0.5 μM): partial degradation
- IC50 [3]: 685 nM
- IC50 [4]: 506 nM
- IC50 [5]: 446 nM
- IC50 (K562 cells (Bcr-Abl)): 122 nM
- growth of leukemia cells [6]: inhibited
- IC50 (A375 cells (B-raf V600E)): 70 nM
- IC50 (MV 4-11 cells (FLT3-ITD)): 35 nM
- apoptosis (Kasumi-1 cells): induce apoptosis
